Experiments:
norepinephrine = conditions: in vivo; cited from earlier work
[1] = system: patients with essential hypertension; conditions: cited from earlier work
[2] = system: patients with chronic left sided congestive heart failure; assay: Resting and exercise blood pressure, heart rate, ST-segment depression and cardiothoracic ratio, trimazosin (Example 3); assay type: in vivo, human; conditions: for Cardiothoracic ratio / Exercise diastolic blood pressure / Exercise heart rate / Exercise systolic blood pressure / Exercise systolic pressure times heart rate/100 / Maximal ST-segment depression below resting level / Resting diastolic blood pressure / Resting heart rate / Resting systolic blood pressure / Resting systolic pressure times heart rate/100: mean
Description: Sixteen men between 41 and 66 years of age with chronic left sided congestive heart failure were subjects. Twelve patients had coronary heart disease with an old healed myocardial infarction, one patient had alcoholic cardiomyopathy, and three patients had idiopathic cardiomyopathy as the cause of their chronic heart failure. All 16 patients had cardiomegaly on physical examination and on their chest roentgenogram, a left ventricular third heart sound heard by auscultation, and evidence of pulmonary venous congestion on their chest roentgenogram. Their baseline standing blood pressures ranged between 114 and 150 mm. Hg. systolic and 72 and 100 mm. Hg. diastolic.
After baseline measurements, all 16 patients received one capsule of single-blind placebo three times daily for two weeks. The patients then received in a double-blind, randomized study trimazosin or placebo for six weeks. Eight patients received one placebo capsule three times daily for weeks one and two, two placebo capsules three times daily for weeks three and four, and three placebo capsules three times daily for weeks five and six of the double-blind period. Seven patients received one 50 mg. trimazosin capsule three times daily for weeks one and two, two 50 mg. trimazosin capsules three times daily for weeks three and four, and three 50 mg. trimazosin capsules three times daily for weeks five and six of the double-blind period. One patient (patient number five on trimazosin) received one 50 mg. trimazosin capsule three times daily for 32 days.
The patients were seen by one of the investigators, questioned for symptoms, and given a physical examination in the baseline period, at the end of two weeks of single-blind placebo, and at the end of weeks one, two, three, four, five, and six on double-blind medication. A standard 12-lead electrocardiogram and PA and lateral chest roentgenograms were taken in the baseline period, at the end of two weeks of single-blind placebo, and at the end of three weeks and six weeks on double-blind medication.
Two practice treadmill tests were performed by all patients prior to the baseline period. The patients performed a multi-stage uninterrupted treadmill exercise test until the onset of marked dyspnea in the baseline period, and approximately two hours after their morning dose of medication after two weeks of single-blind placebo, after three weeks of double-blindmedication, and after six weeks of double-blind medication. The patients exercised at a treadmill speed of 1.7 m.p.h. and a treadmill grade of 0% for the first 3 min., a treadmill speed of 1.7 m.p.h. and a treadmill grade of 10% for the next 3 min., at a treadmill speed of 2.5 m.p.h. and a treadmill grade of 12% for the third 3 min. period, and then at a treadmill speed of 3.4 m.p.h. and a treadmill grade of 14%.
The patients were monitored by telemetry with simultaneous leads II and V5 throughout exercise. […] blood pressures were recorded with the patients in the sitting and standing positions immediately before exercise, with the patients in the standing position at the end of each completed stage of exercise and at the end of exercise, and with the patients in the sitting and standing positions every 1 min. for at least 5 min. after the end of exercise. Blood pressures were recorded with a mercury sphygmomanometer. The heart rates were measured from the electrocardiographic recordings.
The data listed in Tables 1-4 were analyzed using Student's t test for independent means. Fisher's exact test was used to analyze the data on improvement of symptoms and the data on changes in roentgenographic evidence of pulmonary venous congestion.

adrenergic = assay: Adrenergic blocking activity of trimazosin
Description: This observation might have important clinical implications since other vasodilators may be contraindicated in patients with compensated ischemic heart disease who may develop tachycardia and increased myocardial oxygen requirements [Sonnenblick, et al., N. Engl. J. Med., 285, 688 (1971)] in response to vasodilators.

[3] = single oral doses of 50 to 150 mg.
[4] = patient number five, four days prior to the myocardial infarction

COc1cc2c(N)nc(N3CCN(C(=O)OCC(C)(C)O)CC3)nc2c(OC)c1OC [trimazosin, 2-hydroxy-2-methylpropyl 4-(4-amino-6,7,8-trimethoxy-2-quinazolinyl)-1-piperazinecarboxylate]
digital vascular reactivity to norepinephrine infusion (norepinephrine): decreased
norepinephrine uptake and secretion (norepinephrine): not affected
Heart Rate ([1]; hypertensives without heart failure): does not increase heart rate
blood pressure [1, 3]: significantly lower blood pressure
effect on heart rate [1, 3]: No significant effects
effect on plasma renin activity [1, 3]: No significant effects
side effect [1, 3]: Mild transient dizziness
time of peak effect [1, 3]: between one and four hours
time until effect was apparent [1, 3]: ≤ 30 min
resting systolic blood pressure, change compared with placebo ([2]; 3 weeks, p<0.001): significant decrease
resting product of systolic blood pressure times heart rate, change compared with placebo ([2]; 3 weeks, p<0.005): significant decrease
resting diastolic blood pressure, change compared with placebo ([2]; 3 weeks, p<0.025): significant decrease
diastolic blood pressure at the end of exercise, change compared with placebo ([2]; 6 weeks, p<0.005): significant decrease
resting diastolic blood pressure, change compared with placebo ([2]; 6 weeks, p<0.005): significant decrease
resting systolic blood pressure, change compared with placebo ([2]; 6 weeks, p<0.005): significant decrease
resting product of systolic blood pressure times heart rate, change compared with placebo ([2]; 6 weeks, p<0.01): significant decrease
standing systolic blood pressure ([2]; patient number five, after two weeks of 50 mg. three times daily): 104/70
blood pressure, standing position [2, 4]: 104/70
blood pressure, supine position [2, 4]: 106/70
Cardiothoracic ratio ([2]; trimazosin 3 weeks): 0.559
Exercise diastolic blood pressure ([2]; trimazosin 3 weeks): 84.8 mm Hg
Exercise heart rate ([2]; trimazosin 3 weeks): 149.3 beats/min
Exercise systolic blood pressure ([2]; trimazosin 3 weeks): 156.5 mm Hg
Exercise systolic pressure times heart rate/100 ([2]; trimazosin 3 weeks): 236.4
Maximal ST-segment depression below resting level ([2]; trimazosin 3 weeks): 1.31 mm
Resting diastolic blood pressure ([2]; trimazosin 3 weeks): 74.3 mm Hg
Resting heart rate ([2]; trimazosin 3 weeks): 86.3 beats/min
Resting systolic blood pressure ([2]; trimazosin 3 weeks): 116.0 mm Hg
Resting systolic pressure times heart rate/100 ([2]; trimazosin 3 weeks): 100.0
Cardiothoracic ratio ([2]; trimazosin 6 weeks): 0.556
Exercise diastolic blood pressure ([2]; trimazosin 6 weeks): 80.5 mm Hg
Exercise heart rate ([2]; trimazosin 6 weeks): 151.0 beats/min
Exercise systolic blood pressure ([2]; trimazosin 6 weeks): 154.3 mm Hg
Exercise systolic pressure times heart rate/100 ([2]; trimazosin 6 weeks): 235.4
Maximal ST-segment depression below resting level ([2]; trimazosin 6 weeks): 1.31 mm
Resting diastolic blood pressure ([2]; trimazosin 6 weeks): 72.5 mm Hg
Resting heart rate ([2]; trimazosin 6 weeks): 86.5 beats/min
Resting systolic blood pressure ([2]; trimazosin 6 weeks): 112.0 mm Hg
Resting systolic pressure times heart rate/100 ([2]; trimazosin 6 weeks): 96.9
adrenergic blocking activity (adrenergic): does not possess adrenergic blocking activity
